Laboratory results taken from patent US11179356B2, “Methods and compositions to modulate the gut microbiota and to manage weight” (Xeno Biosciences Inc., priority 2015, dated 2021).

Columns and labels:
[1] = over one year; cited from earlier work
[2] = Oral gavage of non-formulated peroxide, body weight and food intake (Example 7); format: in vivo, Sprague Dawley lean rats; settings: rats, oral gavage three times daily in acidified water, total dose 600 mg/kg body weight, 3 days
Method: (§1) 6-7 week old Sprague Dawley lean rats were orally gavaged three times daily either with carbamide peroxide dissolved in acidified water as the treatment arm (total dose=600 mg/kg body weight) or with acidified water alone as the control arm (12 […] per arm) for 3 days. Gavage solution was prepared immediately before oral gavaging was performed. Each rat was fed a normal chow diet throughout (Research Diets) and kept under 12 hr-12 hr light-dark cycle in its own metabolic cage. Fresh fecal samples were collected at day 0 (basal measurement, before dosing start) and at the end of day 3 (after the final dose) and immediately stored at −80 C. Later, 16S rRNA sequencing was performed to measure relative abundance of different taxa in the stool samples. Body weight and food intake were measured daily.

gut microbiota = assay: Oral gavage of non-formulated peroxide, 16S rRNA sequencing of fecal samples (Example 7); format: in vivo, Sprague Dawley lean rats; settings: rats, oral gavage three times daily in acidified water, total dose 600 mg/kg body weight, 3 days
Method: as §1

| SMILES | weight loss [1] | body weight, treatment versus control arm [2] | food intake, treatment versus control arm [2] | change in gut microbiota composition between Day 0 and Day 3, treatment arm and control arm (gut microbiota) |
| --- | --- | --- | --- | --- |
| CCCCCCCCCCC[C@@H](C[C@@H]1OC(=O)[C@H]1CCCCCC)OC(=O)[C@H](CC(C)C)NC=O [Xenical] | 3-4% | – | – | – |
| CC(C)(N)Cc1ccccc1 [Phentermine] | 4-5% | – | – | – |
| NC(N)=O.OO [carbamide peroxide] | – | no significant differences | no significant differences | No significant change |
